# Data taken from patent publication US20190338294A1, “ORTHOGONAL TRANSCRIPTIONAL SWITCHES DERIVED FROM TET REPRESSOR HOMOLOGS FOR SACCHAROMYCES CEREVISIAE” (The Johns Hopkins University, priority 2016, published 2019).
# Where two headings read alike, the source gives them in different places.
# Experiments:
# [1] = system: ethTA(=NLS-ethR-VP16); format: cell-based, Mycobacterium tuberculosis; settings: 2-Benzyl acetate 0.01%, On w/o drug
# [2] = system: lmrTAv2 (=NLS-lmrA-VP16); assay: Lmr-Offv2 switch candidate, GFP reporter (strain lmr/yxaG-lmrTAv2); format: cell-based, Bacillus subtilis; settings: Quercetin 0.13 μM, Fisetin 0.19 μM, Coumesterol 0.22 μM, On w/o drug
# [3] = system: phlTA (=phlF-VP16); assay: DAPG-Off system with ADE2 reporter, spot growth on SC-Ade (strain phlA-TA); settings: 24 μM DAPG, 2 days at 30° C.
# Description: FIG. 3A-FIG. 3D is a series of photographs showing the evaluation of the DAPG-Off system using the ADE2 gene (CDS) as a reporter. Cells were cultured for 2 days at 30° C. in SC (FIG. 3A), SC-Ade (FIG. 3B), SC with 24 μM of DAPG (FIG. 3C), and SC-Ade with 24-DAPG (FIG. 3D). Cells were diluted 10-fold stepwise across each row.
# A second reporter gene was used to further assess the performance of the DAPG-Off switch. Here, it was examined whether the ADE2 gene under the control of phlPr complements the adenine-auxotrophy of strain BY11204 in a DAPG-dependent manner (FIG. 3A-FIG. 3D).
# [4] = system: BY4741; settings: cited from earlier work
# [5] = system: BY4741; assay: Effects of DAPG on plating efficiency of BY4741; format: cell-based, Saccharomyces cerevisiae; settings: 2 days
# Description: FIG. 2 is a bar graph showing the effects of DAPG on plating efficiency of BY4741. Yeast strain BY4741 overnight culture in SC medium was diluted 25,000-fold, and 100 μl was spread on SC, and SC containing 24-μM or 48 μM of DAPG. The number of colonies formed was counted after 2 days. The values were means and standard deviations calculated from three experiments.
# [6] = system: phlTA (=phlF-VP16); assay: DAPG-Off switch, GFP reporter, flow cytometry (strain DapG-TA); format: cell-based, Pseudomonas; settings: for GFP fluorescence of DapG-TA: compared with BY4741 (background); for intensity of reporter GFP fluorescence, DAPG-Off switch: SC with 25-μM doxycycline, 25-μM D-camphor, 48-μM DAPG or 150-μM p-cumate
# [7] = biological target: T1, tTA (=tetR-VP16) (Escherichia coli, UniProt P04483); assay: Tet-Off switch, GFP reporter, orthogonality test; format: cell-based; settings: SC with 25-μM doxycycline, 25-μM D-camphor, 48-μM DAPG or 150-μM p-cumate
# T1 construct: expressed in transfected cells; host or cells: Saccharomyces cerevisiae BY4742, integrated pSIB527 (strain TetOffG)
# [8] = system: camTA (=camR-VP16-NLS); assay: Camphor-Off switch, GFP reporter, orthogonality test; format: cell-based, Pseudomonas putida; settings: SC with 25-μM doxycycline, 25-μM D-camphor, 48-μM DAPG or 150-μM p-cumate
# [9] = system: NLS-PhlF; assay: DAPG-On system with ADE2 reporter, spot growth on SC-Ade (strains AphOx-2μPhlF); settings: 5 μM DAPG; hardly grew on DAPG-free SC-Ade
# Description: Cells were cultured for 1 day at 30° C. in SC-Leu-His (FIG. 6A), SC-Leu-His-Ade (FIG. 6B), SC-Leu-His with 24-μM DAPG (FIG. 6C), and SC-Leu-His-Ade with 24-μM DAPG (FIG. 6D). The cells were diluted 10-fold stepwise across each row.
# The performance of the DAPG-On system was assessed using ADE2 as a reporter in the ade2Δ BY11204 strain.
# [10] = biological target: T2, cymTA(=NLS-cymR-VP16) (Pseudomonas putida, UniProt O33453); assay: Cumate-Off switch, GFP reporter (strain cymG-TA); format: cell-based; settings: SC with 25-μM doxycycline, 25-μM D-camphor, 48-μM DAPG or 150-μM p-cumate
# T2 construct: (cymTA in pSIB470); expressed in transfected cells; host or cells: Saccharomyces cerevisiae BY4741, integrated pSIB470 (strain cymG-TA)
# T2 sequence (O33453 other isoform, or with tags, fused parts or gaps): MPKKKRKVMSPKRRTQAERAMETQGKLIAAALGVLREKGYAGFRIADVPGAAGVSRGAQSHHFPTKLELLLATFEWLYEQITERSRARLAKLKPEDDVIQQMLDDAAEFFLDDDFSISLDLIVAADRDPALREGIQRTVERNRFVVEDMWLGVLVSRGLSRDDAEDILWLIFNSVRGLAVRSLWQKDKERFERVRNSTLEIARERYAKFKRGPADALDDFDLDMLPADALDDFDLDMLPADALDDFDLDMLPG
# [11] = system: varTA (=varR-VP16); assay: Var-Off switch candidate, GFP reporter (strain varG-TA); format: cell-based, Streptomyces virginae; settings: Virginiamycin S1 2 mM, On w/o drug
# [12] = system: icaTA (=icaR-VP16); assay: IcaR-Off switch candidate, GFP reporter (strain icaG-TA); format: cell-based, Staphylococcus epidermidis; settings: Gentamicin 10 mM, On w/o drug
molecule,measurement,setting,value
CC(=O)OCc1ccccc1 [2-Benzyl acetate],Expression of GFP with drug,[1],On
same,Expression of GFP with drug,[1]; listed as 2-benzyl acetate,solid ligand-independent GFP fluorescence
O=c1oc2cc(O)ccc2c2oc3cc(O)ccc3c12 [Coumesterol],Expression of GFP with drug,[2],On
"CC(=O)c1c(O)cc(O)c(C(C)=O)c1O [DAPG, 2,4-diacetylphloroglucinol]",growth of phlA-TA strain on SC-Ade medium,[3],did not grow
same,growth of BY4741,"[4]; 10-μg/ml DAPG (Kwak et al., 2011)",did not inhibit growth
same,growth of cells of BY4741 background,"[4]; higher concentrations than 10-μg/ml DAPG (Troppens et al., 2013)",did show sensitivity
same,number of colonies formed,[5]; SC with 24-μM (5-μg/ml) DAPG vs SC without DAPG,little difference
same,number of colonies formed,[5]; SC with 48-μM (10-μg/ml) DAPG vs SC without DAPG,little difference
same,culture time over which GFP fluorescence reduced to background levels,"[6]; 48 μM DAPG, strain DapG-TA",14 h
same,GFP fluorescence of DapG-TA,[6]; 12-μM DAPG in SC,higher than that of the BY4741 control strain
same,GFP fluorescence of DapG-TA,[6]; 48-μM DAPG in SC,decreased to the same level as BY4741
same,"intensity of reporter GFP fluorescence, DAPG-Off switch",[6],decreased to the background level
same,"intensity of reporter GFP fluorescence, Tet-Off switch",[7],lowered GFP fluorescence
same,"intensity of reporter GFP fluorescence, Camphor-Off switch",[8],lowered GFP fluorescence
same,growth of strains AphOx-2μPhlF on SC-Ade medium,[9],vigorous growth
same,"intensity of reporter GFP fluorescence, Cumate-Off switch",[10],strong GFP signal
O=c1c(O)c(-c2ccc(O)c(O)c2)oc2cc(O)ccc12 [Fisetin],Expression of GFP with drug,[2],On
O=c1c(O)c(-c2ccc(O)c(O)c2)oc2cc(O)cc(O)c12 [Quercetin],Expression of GFP with drug,[2],On
same,Expression of GFP with drug,[2]; listed as quercetin,not ligand (quercetin)-responsive
CC[C@H]1NC(=O)[C@@H](NC(=O)c2ncccc2O)[C@@H](C)OC(=O)[C@H](c2ccccc2)NC(=O)[C@@H]2CC(=O)CCN2C(=O)[C@H](Cc2ccccc2)N(C)C(=O)[C@@H]2CCCN2C1=O [Virginiamycin S1],Expression of GFP with drug,[11],On
same,Expression of GFP with drug,[11]; listed as virginiamycin S,strong GFP expression
D-camphor,"intensity of reporter GFP fluorescence, DAPG-Off switch",[6],strong GFP signal
same,"intensity of reporter GFP fluorescence, Tet-Off switch",[7],strong GFP signal
same,"intensity of reporter GFP fluorescence, Camphor-Off switch",[8],decreased to the background level
same,"intensity of reporter GFP fluorescence, Cumate-Off switch",[10],strong GFP signal
Gentamicin,Expression of GFP with drug,[12],On
same,Expression of GFP with drug,[12]; listed as gentamicin,solid ligand-independent GFP fluorescence
